Test results as given in patent publication US7807828B2, “Olanzapine analogs and methods of use thereof” (Hypnion, Inc., priority 2005, dated 2010).
Several values for one entry are separate records, joined by “and”; a condition that tells them apart may be missing. Equal values may be shown once.

Experiments:
H1 (hr) = target: T1, H1 (hr) (Homo sapiens, UniProt P35367); assay: H1 (hr) Novascreen binding assay; settings: Table 7A; Ki in nM
T1 construct: Novascreen, MDS, Cerep (assay providers)
Protocol: Binding assays were performed using various sleep-inducing agents and derivatives selected from those listed in Table 1 in competitive binding assays with known standards for the H1 histamine receptor, and the M1, M2, and M3 muscarinic receptors, alpha 1 and alpha 2 receptors, D1 and D2 receptors, 5HT2a, 5HT2b, 5HT2c, 5HT2c, and 5HT7 receptors.
The histamine H1 assays are described in Chang, et al., Heterogeneity of Histamine H1-Receptors: Species Variation in [^3H]Mepyramine Binding of Brain Membranes. Journal of Neurochemistry. 32: 1653-1663 (1979); Martinez-Mir, M. I., Pollard, H., Moreau, J., et al. Three Histamine Receptors (H1, H2, and H3) Visualized in the Brain of Human and Non-Human Primates. Brain Res. 526: 322-327 (1990); Haaksma, E. E. J., Leurs, R. and Timmerman, H. Histamine Receptors: Subclasses and Specific Ligands. Pharmac. Ther. 47: 73-104 (1990). The muscarinic assays are described in Buckley, N. J., Bonner, T. I., Buckley, C. M., and Brann, M. R. Antagonist Binding Properties of Five Cloned Muscarinic Receptors Expressed in CHO-K1 Cells. Mol. Pharmacol. 35: 469-476 (1989). The assays were performed according to the preceding articles, with the following modifications. Chemical reagents in the following were obtained from Sigma, St. Louis, Mo.

[1] = target: T2, histamine H1 receptor (bovine) (Bos taurus, UniProt P30546); assay: Histamine H1 binding assay, bovine cerebellar membranes, [3H]pyrilamine; settings: for Ki: Table 7A, Ki in nM
T2 construct: the receptors were obtained from bovine cerebellar membrane tissue; from tissue; host or cells: bovine cerebellar membranes
T2 sequence (P30546 whole entry): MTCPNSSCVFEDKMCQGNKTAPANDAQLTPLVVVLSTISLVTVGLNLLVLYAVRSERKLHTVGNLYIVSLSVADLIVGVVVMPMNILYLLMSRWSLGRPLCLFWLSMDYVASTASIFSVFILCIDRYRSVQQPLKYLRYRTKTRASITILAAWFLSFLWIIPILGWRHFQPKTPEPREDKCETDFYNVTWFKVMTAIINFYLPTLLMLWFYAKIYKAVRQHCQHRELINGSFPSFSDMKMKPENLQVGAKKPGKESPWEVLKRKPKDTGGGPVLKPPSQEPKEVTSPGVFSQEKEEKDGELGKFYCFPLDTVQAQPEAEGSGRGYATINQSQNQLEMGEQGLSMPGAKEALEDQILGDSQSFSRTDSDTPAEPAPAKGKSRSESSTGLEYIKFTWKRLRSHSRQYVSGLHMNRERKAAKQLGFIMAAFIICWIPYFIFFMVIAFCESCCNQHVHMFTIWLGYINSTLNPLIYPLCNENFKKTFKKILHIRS

[2] = target: T3, human recombinant M2 expressed in CHO cells (Homo sapiens, UniProt P08172); assay: M2 muscarinic receptor binding assay; settings: Table 7A, M1 M2 M3
T3 construct: purchased PerkinElmer, Inc., Wellesley, Mass; host or cells: CHO cells
T3 sequence (P08172 1-466): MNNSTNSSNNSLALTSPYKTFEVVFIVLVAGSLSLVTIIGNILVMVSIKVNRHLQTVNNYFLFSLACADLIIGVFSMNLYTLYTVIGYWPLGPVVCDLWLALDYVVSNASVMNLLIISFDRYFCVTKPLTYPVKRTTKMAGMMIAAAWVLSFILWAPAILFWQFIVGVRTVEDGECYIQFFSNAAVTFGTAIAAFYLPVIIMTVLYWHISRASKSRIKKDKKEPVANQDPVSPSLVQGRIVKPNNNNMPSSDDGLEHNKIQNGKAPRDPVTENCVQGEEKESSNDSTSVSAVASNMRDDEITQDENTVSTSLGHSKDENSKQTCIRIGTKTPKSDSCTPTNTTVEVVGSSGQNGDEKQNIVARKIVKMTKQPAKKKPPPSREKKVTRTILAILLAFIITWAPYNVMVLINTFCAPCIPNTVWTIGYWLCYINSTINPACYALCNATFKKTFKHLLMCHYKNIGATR

[3] = target: T4, human recombinant M3 expressed in CHO cells (Homo sapiens, UniProt P20309); assay: M3 muscarinic receptor binding assay; settings: Table 7A, third line of column M1 M2 M3
T4 construct: purchased PerkinElmer, Inc., Wellesley, Mass; host or cells: CHO cells
T4 sequence (P20309 whole entry): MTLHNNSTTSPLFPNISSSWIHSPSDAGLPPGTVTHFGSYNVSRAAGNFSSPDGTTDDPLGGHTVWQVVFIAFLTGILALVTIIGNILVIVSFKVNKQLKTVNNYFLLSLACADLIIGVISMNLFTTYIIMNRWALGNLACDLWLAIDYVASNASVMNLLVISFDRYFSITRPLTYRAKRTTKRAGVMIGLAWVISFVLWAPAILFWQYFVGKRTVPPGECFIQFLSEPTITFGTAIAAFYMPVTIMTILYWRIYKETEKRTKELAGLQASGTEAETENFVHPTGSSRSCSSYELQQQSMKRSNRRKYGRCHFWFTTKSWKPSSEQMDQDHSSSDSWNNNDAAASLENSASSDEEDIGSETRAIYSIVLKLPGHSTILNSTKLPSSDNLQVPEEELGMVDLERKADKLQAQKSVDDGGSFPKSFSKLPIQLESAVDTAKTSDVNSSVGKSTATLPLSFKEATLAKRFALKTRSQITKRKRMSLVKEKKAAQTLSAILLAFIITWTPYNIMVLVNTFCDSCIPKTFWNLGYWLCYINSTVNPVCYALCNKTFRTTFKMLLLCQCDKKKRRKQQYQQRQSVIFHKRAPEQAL

D2 (h) = D2 (h) (Homo sapiens, UniProt P14416); assay: Dopamine D2 binding assay; settings: Table 7A; unit inferred
Chain of D2 (h) (P14416 whole entry): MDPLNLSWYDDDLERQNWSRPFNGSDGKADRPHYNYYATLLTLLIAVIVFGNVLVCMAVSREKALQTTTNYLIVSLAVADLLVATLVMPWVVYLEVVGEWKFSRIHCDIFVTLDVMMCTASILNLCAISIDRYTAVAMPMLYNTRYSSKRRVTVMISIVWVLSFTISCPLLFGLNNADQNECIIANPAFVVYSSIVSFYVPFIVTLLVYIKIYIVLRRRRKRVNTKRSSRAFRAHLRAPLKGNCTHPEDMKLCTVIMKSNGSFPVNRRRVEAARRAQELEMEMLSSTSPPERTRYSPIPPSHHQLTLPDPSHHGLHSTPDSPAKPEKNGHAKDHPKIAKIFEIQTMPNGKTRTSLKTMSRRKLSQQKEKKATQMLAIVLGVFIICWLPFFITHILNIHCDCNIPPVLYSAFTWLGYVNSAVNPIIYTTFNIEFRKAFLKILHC

5HT2a (hctx) = target: T5, 5HT2a (hctx) (Homo sapiens, UniProt P28223); assay: 5HT2a (hctx) binding assay; settings: Table 7B; unit inferred
T5 construct: (hctx); from tissue; host or cells: human cortex (my reading of 'hctx')
T5 sequence (P28223 whole entry): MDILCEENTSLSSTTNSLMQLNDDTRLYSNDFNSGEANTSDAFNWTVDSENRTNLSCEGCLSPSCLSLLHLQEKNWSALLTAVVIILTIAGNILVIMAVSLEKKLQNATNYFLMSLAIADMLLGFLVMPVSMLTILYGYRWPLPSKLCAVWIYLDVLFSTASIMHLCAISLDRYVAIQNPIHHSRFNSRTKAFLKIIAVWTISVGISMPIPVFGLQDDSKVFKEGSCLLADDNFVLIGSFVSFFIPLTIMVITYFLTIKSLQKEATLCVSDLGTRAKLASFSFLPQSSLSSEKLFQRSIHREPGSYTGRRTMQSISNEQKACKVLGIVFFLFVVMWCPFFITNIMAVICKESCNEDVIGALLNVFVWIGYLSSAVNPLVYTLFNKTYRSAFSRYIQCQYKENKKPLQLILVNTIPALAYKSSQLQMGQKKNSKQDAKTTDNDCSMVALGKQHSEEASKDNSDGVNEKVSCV

adult, male Wistar rats = assay: Sleep-wakefulness monitoring (SCORE-2000, EEG/EMG) in rats; format: in vivo, rat; settings: minutes; for LONGEST UNINTERRUPTED SLEEP BOUT 10 mg/kg / NREM CUMULATION 10 mg/kg: oral bolus at CT-18, 10 mg/kg
Protocol: Sleep-wakefulness, locomotor activity and body temperature are monitored in male Wistar rats treated with a test compound (i.e., olanzapine analog) initially at a concentration of 10 mg/kg. Higher and lower doses are assayed for select compounds (e.g., as high as 45 mg/kg, and as low as necessary to establish a no-effect dose). Treatments are administered at CT-18, the peak of the activity dominated period (6 hours after lights-off), and produced soporific (sleep-inducing) effects characterized by increased non-REM sleep time, increased sleep continuity, but without evidence of REM sleep inhibition or rebound insomnia.
Sleep-wakefulness, locomotor activity and body temperature were monitored in vivo with various compounds of the invention. Adult, male Wistar rats (250 g at time of surgery, Charles River Laboratories, Wilmington Mass.) were anesthetized (2% isoflourane in medical grade oxygen) and surgically prepared with a cranial implant to permit chronic electro-encephalogram (EEG) and electromyogram (EMG) recording. Body temperature and locomotor activity were monitored via a miniature transmitter (Mini-Mitter, Bend, Oreg.) surgically placed in the abdomen. The cranial implant consisted of stainless steel screws (two frontal (+3.2 AP from bregma, ±2.0 ML) and two occipital (−6.9 AP, ±5.5 ML)) for EEG recording. Two Teflon®-coated stainless steel wires were positioned under the nuchal trapezoid muscles for EMG recording. All leads were soldered to a miniature connector prior to surgery, and gas sterilized in ethylene oxide. The implant assembly was affixed to the skull with dental acrylic. A minimum of three weeks was allowed for surgical recovery.
Each rat was permanently housed in its own individual recording cage located within separate, ventilated compartments of custom-designed stainless steel cabinets. Each cage was enhanced with a filter-top riser and low-torque swivel-commutator. Food and water were available ad libitum. A 24-hr light-dark cycle (12 hours light, 12 hours dark) was maintained throughout the study. Animals were undisturbed for at least 48 hours before and after treatments.
Sleep and wakefulness were determined using “SCORE-2000™” (Hypnion, Worcester, Mass.)—an internet-based sleep-wake and physiological monitoring system. The system monitored amplified EEG (bandpass 1-30 Hz), integrated EMG (bandpass 10-100 Hz), body temperature and non-specific locomotor activity (LMA) via telemetry, and drinking activity, continuously and simultaneously. Arousal states were classified on-line as non-REM (NREM) sleep, REM sleep, wake, or theta-dominated wake every 10 seconds. Total drinking and locomotor activity counts, and body temperature were quantitiated and recorded each minute, using EEG feature extraction and pattern-matching algorithms. […] The classification algorithm used individually-taught EEG-arousal-state templates, plus EMG criteria to differentiate REM sleep from theta-dominated wakefulness, plus behavior-dependent contextual rules (e.g., if the animal was drinking, it is awake). Drinking and locomotor activity intensity (LMA) were recorded every 10 seconds, while body temperature was recorded each minute. Locomotor activity was detected by a telemetry receiver (Mini-Mitter) beneath the cage. Telemetry measures (LMA and body temperature) were not part of the scoring algorithm; thus, sleep-scoring and telemetry data were independent measures.
Compounds were administered at CT-18, the peak of the activity-dominated period, sufficient time was allowed to view the time course of the treatment effect before lights-on (6 hours post-treatment). Compounds were suspended in sterile 0.25% or 0.5% methylcellulose (1-2 ml/kg). Treatments were administered orally as a bolus.
A parallel group study design was employed. […]

T1 sequence (P35367 whole entry): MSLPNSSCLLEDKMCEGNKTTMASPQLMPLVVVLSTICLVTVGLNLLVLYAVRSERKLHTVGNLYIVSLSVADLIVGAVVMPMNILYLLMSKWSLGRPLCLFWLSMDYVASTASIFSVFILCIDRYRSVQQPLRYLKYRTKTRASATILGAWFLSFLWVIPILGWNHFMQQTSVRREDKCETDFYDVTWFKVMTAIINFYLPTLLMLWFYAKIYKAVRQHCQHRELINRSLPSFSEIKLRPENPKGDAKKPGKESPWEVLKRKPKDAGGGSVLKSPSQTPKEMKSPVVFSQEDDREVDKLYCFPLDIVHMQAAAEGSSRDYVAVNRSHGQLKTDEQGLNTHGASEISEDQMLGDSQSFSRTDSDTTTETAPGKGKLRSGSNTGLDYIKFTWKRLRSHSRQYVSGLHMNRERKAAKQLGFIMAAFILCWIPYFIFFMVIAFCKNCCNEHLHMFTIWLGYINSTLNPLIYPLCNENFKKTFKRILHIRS

| Structure (SMILES) | Ki (H1 (hr)) | Ki [1] [nM] | specificity for H1 over the muscarinic receptors ([1]; from Ki for H1 and M1, M2, M3) | Ki [2] [nM] | Ki [3] [nM] | Ki (D2 (h)) | Ki (5HT2a (hctx)) [nM] | LONGEST UNINTERRUPTED SLEEP BOUT 0.3 mg/kg (adult, male Wistar rats; oral bolus at CT-18, 0.3 mg/kg) [min] | LONGEST UNINTERRUPTED SLEEP BOUT 1 mg/kg (adult, male Wistar rats; oral bolus at CT-18, 1 mg/kg) [min] | LONGEST UNINTERRUPTED SLEEP BOUT 3 mg/kg (adult, male Wistar rats; oral bolus at CT-18, 3 mg/kg) [min] | NREM CUMULATION 3 mg/kg (adult, male Wistar rats; oral bolus at CT-18, 3 mg/kg) [min] | LONGEST UNINTERRUPTED SLEEP BOUT 10 mg/kg (adult, male Wistar rats) [min] | NREM CUMULATION 10 mg/kg (adult, male Wistar rats) [min] | LONGEST UNINTERRUPTED SLEEP BOUT 30 mg/kg (adult, male Wistar rats; oral bolus at CT-18, 30 mg/kg) [min] | NREM CUMULATION 30 mg/kg (adult, male Wistar rats; oral bolus at CT-18, 30 mg/kg) [min] |
| --- | --- | --- | --- | --- | --- | --- | --- | --- | --- | --- | --- | --- | --- | --- | --- |
| Cc1cc2c(s1)Nc1ccccc1N=C2N1CCN(CC(C)(C)C(=O)O)CC1 [Compound 46] | 30 nM and 44 nM | 56 | highly specific for H1 over the muscarinic receptors | > 10000 | > 10000 | 1100 nM and 533 nM and 847 nM | 639 | 3.9 | 11.8 ± 2.7 | 10.8 ± 3.2 | 38 ± 4 | 15.5 ± 4.1 | 42 ± 5 | – | – |
| CCc1cc2c(s1)Nc1ccccc1N=C2N1CCN(CC(C)(C)C(=O)O)CC1 [Compound 90] | 70 nM | 30 | – | > 10000 | > 10000 | 196 nM | 314 | – | – | 12.3 ± 4.0 | – | – | 48 ± 8 | – | – |
| Cc1cc2c(s1)Nc1ccccc1N=C2N1CCN(CC2(C(=O)O)CC2)CC1 [Compound 91] | 60.6 nM | 30.1 | – | > 10000 | > 10000 | 202 nM | 59.1 | – | – | – | – | 10.7 ± 3.2 | 26 ± 4 | – | – |
| Cc1cc2c(s1)Nc1ccccc1N=C2N1CCN(CCC(=O)O)CC1 [Compound 92] | 119 nM | 53.5 | – | > 10000 | > 10000 | 2480 nM | 232 | – | – | – | – | 3.1 ± 2.5 | 10 ± 4 | 5.7 ± 1.8 | 27 ± 4 |
| CC(C)c1cc2c(s1)Nc1ccccc1N=C2N1CCN(CC(C)(C)C(=O)O)CC1 [Compound 94] | 62 nM | 45.2 | – | > 10000 | > 10000 | 107 nM | 73 | – | – | – | – | 19.9 ± 3.7 | 47 ± 6 | – | – |
